The values that follow come from patent publication US20030010621A1, “NOVEL SYNTHESIS OF PHTHALOCYANINES BY MICROWAVE IRRADIATION” (priority 2001, published 2003).

The data set can be described thus: Solubility of lab-made phthalocyanines in organic solvents. It counts as physicochemical.

`[Ni+2].c1ccc2c(c1)-c1nc-2nc2[n-]c(nc3nc(nc4[n-]c(n1)c1ccccc41)-c1ccccc1-3)c1ccccc21` [NiPc]: the solubility entry was “◯ (slightly soluble (1 wt. % ˜ 3 wt. %))” (THF); “◯ (slightly soluble (1 wt. % ˜ 3 wt. %))” (acetone); “Δ (hardly soluble (<1 wt. %))” (methanol); “Δ (hardly soluble (<1 wt. %))” (n-hexane); “◯ (slightly soluble (1 wt. % ˜ 3 wt. %))” (toluene).

Regarding `[Co+2].c1ccc2c(c1)-c1nc-2nc2[n-]c(nc3nc(nc4[n-]c(n1)c1ccccc41)-c1ccccc1-3)c1ccccc21` [CoPc], the solubility entry (THF) is given as “◯ (slightly soluble (1 wt. % ˜ 3 wt. %))”; the solubility entry (acetone) is reported as “◯ (slightly soluble (1 wt. % ˜ 3 wt. %))”; the solubility result (methanol) is given as “Δ (hardly soluble (<1 wt. %))”; the solubility result (n-hexane) is “Δ (hardly soluble (<1 wt. %))”; the solubility entry (toluene) was “◯ (slightly soluble (1 wt. % ˜ 3 wt. %))”.
